Measured values as given in patent US20210196779A1, “Compositions and Methods for Treating Steroid Hormone-Related Diseases or Disorders” (YALE UNIVERSITY, priority 2018, published 2021).
Where two headings read alike, the source gives them in different places.

Key:
Assay type in all cases: cell-based
GR [1] = assay: Western blot, MCF7 cells, GR; conditions: 24 h
Protocol: (§1) Western blot analysis was used to determine the protein expression using protein specific antibodies.
(§2) Total cell lysis was conducted using 2×SDS sample buffer (62.5 mM Tris-HCl, 2% SDS, 10% glycerol, 50 mM DTT, and 0.05% bromophenol blue). The samples were sonicated for 10 s to shear DNA. Cell nuclei were isolated using Tris buffer saline with 0.4% NP40. Cell extracts were then electrophoresed through 10% SDS-polyacrylamide gels and transferred to 0.2 μm nitrocellulose membranes (Bio-Rad Laboratories, Hercules, Calif.) with a Miniprotein II transferring apparatus (Bio-Rad). The membranes were blocked and probed in TBS-T buffer (1×TBS buffer, 0.2% Tween 20) containing 5% non-fat milk. Monoclonal rabbit anti-AR (1:5000), was used to detect androgen receptor (Abcam #133273), Glucocorticoid Receptor (D8H2) XP® Rabbit mAb #3660, ERa Antibody (F-10): sc-8002, BRD4 (E2A7X) Rabbit mAb #13440, Brd2 (D89B4) Rabbit mAb #5848, PARP (46D11) Rabbit mAb #9532, Acetyl-Histone H3 (Lys27) (D5E4) XP® Rabbit mAb #8173 and a monoclonal actin antibody diluted 1:2500 (Sigma, St. Louis, Mo.) was used to detect β-actin as the internal control to confirm equal protein loading. […] Enhanced chemiluminescence reagents (Perkin-Elmer Life Science Products, Boston, Mass.) were used to visualize the immunoreactive bands and the densities of protein bands were scanned analyzed using ImageJ software from the NIH.

[2] = tested on: LNCaP-GR (GR overexpressing) cells; assay: Cell growth assay, GR overexpressing LNCaP cells; conditions: for IC50: Homo sapiens, LNCaP, 96 h, 4 days, standardized to equivalent concentration of Y1830, read-out: IC50 for the inhibition of growth
Protocol: (§3) 20,000 cells in 1 ml of medium (phenol red free RPMI1640, 5% charcoal-dialysis FBS, 50 μg/ml Kanamyacin) were seeded per well of a 24-well plate and incubated in a 37° C. incubator with 5% CO2 overnight. Different concentrations of herbal extract were added to each well in order to have final concentrations from 50 μg/ml to 500 μg/ml. […] For glucocorticoid receptor overexpressed LNCaP cells, dexamethasone (50 nM) was used to stimulate glucocorticoid receptor activity. For all breast cancer cells, E2 (10 nM) was used to stimulate ER activity. Control medium without any steroid hormone was used as a control setting. After 4 days of incubation, cells were fixed and stained for 2 h with 0.5% methylene blue in 50% ethanol, followed by washing with tap water to remove unbound dye. Plates were air dried and then cells were dissolved in 1% sarkosyl (sodium lauroyl sarcosinate) by shaking at room temperature for 3 h. […] All experiments were performed in triplicate wells and were repeated at least three times.

AR [3] = target: T1, AR (Homo sapiens, UniProt P10275); assay: Western blot, MCF7 cells, AR; conditions: presence or absence of E2, 24 h
T1 construct: endogenous in cells; host or cells: MCF7
T1 sequence (P10275 whole entry): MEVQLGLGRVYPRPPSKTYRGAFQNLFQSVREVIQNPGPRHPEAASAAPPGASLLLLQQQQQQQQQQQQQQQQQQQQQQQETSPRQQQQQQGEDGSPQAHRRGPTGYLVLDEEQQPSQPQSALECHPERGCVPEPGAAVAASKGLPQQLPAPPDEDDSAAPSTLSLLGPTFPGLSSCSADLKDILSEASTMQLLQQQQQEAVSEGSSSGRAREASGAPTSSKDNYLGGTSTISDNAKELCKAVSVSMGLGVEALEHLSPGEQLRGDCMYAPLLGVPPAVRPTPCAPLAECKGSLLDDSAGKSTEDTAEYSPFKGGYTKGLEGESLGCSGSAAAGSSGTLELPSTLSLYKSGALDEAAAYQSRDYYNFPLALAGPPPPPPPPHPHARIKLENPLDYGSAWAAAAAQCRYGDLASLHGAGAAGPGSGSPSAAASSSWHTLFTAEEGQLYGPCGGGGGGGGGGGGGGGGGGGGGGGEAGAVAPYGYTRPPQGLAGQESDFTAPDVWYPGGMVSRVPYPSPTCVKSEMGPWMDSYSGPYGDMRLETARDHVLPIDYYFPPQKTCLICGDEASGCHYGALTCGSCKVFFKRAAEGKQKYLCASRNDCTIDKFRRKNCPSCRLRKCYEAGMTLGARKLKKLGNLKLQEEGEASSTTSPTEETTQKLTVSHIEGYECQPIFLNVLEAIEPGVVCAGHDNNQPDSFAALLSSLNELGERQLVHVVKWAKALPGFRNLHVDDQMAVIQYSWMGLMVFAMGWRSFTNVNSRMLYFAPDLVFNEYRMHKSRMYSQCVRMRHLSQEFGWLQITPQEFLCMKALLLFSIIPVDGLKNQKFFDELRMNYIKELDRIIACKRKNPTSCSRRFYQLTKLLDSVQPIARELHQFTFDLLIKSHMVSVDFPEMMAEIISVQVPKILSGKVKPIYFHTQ
Protocol: as §1, §2

estrogen receptor ERa = target: T2, estrogen receptor ERa (Homo sapiens, UniProt P03372); assay: Western blot, MCF7 cells, ERa; conditions: presence or absence of E2, 24 h
T2 construct: endogenous in cells; host or cells: MCF7
T2 sequence (P03372 whole entry): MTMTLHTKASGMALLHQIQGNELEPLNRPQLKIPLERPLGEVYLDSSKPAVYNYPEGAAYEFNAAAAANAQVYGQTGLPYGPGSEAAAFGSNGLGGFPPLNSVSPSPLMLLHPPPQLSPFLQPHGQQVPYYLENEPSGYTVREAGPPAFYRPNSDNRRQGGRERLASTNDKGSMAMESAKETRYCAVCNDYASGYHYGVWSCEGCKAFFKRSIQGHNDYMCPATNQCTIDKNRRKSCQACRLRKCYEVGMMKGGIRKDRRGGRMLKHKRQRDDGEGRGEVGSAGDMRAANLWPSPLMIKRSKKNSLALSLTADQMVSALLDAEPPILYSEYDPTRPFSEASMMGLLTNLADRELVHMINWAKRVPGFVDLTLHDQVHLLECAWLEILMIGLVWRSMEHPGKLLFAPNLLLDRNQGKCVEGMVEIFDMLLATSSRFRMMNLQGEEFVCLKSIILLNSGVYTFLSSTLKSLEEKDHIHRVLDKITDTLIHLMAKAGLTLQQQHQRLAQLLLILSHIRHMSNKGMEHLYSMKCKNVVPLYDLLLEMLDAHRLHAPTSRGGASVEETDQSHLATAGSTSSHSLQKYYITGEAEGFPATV
Protocol: as §1, §2

beta-catenin (b-cat) [4] = assay: Western blot, 22RV1 cells, beta-catenin; conditions: presence or absence of DHT, 24 h
Protocol: as §1, §2

cyclin D1 (cycD1) [5] = assay: Western blot, MCF7 cells, cyclin D1; conditions: presence or absence of E2, 24 h
Protocol: as §1, §2

estrogen receptor ERb = assay: Western blot, MCF7 cells, ERb; conditions: presence or absence of E2, 24 h
Protocol: as §1, §2

[6] = tested on: progesterone receptor PR (a and b); assay: Western blot, MCF7 cells, PR; conditions: presence or absence of E2, 24 h
Protocol: as §1, §2

AR-V (truncated AR) = assay: Western blot, 22RV1 cells, AR-V; conditions: presence or absence of DHT, 24 h
Protocol: as §1, §2

PC3 cells = assay: Cell growth assay, PC3 cells; conditions: for IC50: Homo sapiens, PC-3, 96 h, 4 days, standardized to equivalent concentration of Y1830, read-out: IC50 for the inhibition of growth
Protocol: as §3

beta-catenin (b-cat) [7] = assay: Western blot, MCF7 cells, beta-catenin; conditions: presence or absence of E2, 24 h
Protocol: as §1, §2

GR [8] = assay: Western blot, 22RV1 cells, GR; conditions: presence or absence of DHT, 24 h
Protocol: as §1, §2

AR [9] = assay: Western blot, 22RV1 cells, AR; conditions: presence or absence of DHT, 24 h
Protocol: as §1, §2

LNCaP cells = assay: Cell growth assay, LNCaP prostate cancer cells; conditions: for IC50: Homo sapiens, LNCaP, 96 h, 4 days, standardized to equivalent concentration of Y1830, read-out: IC50 for the inhibition of growth
Protocol: (§4) 22RV1 or LNCaP prostate cancer cells were grown in corning T75 cell culture flasks in RPMI1640 medium supplemented with 5% FBS, 50 μg/ml Kanamycin in a 37° C., 5% CO2 incubator.
as §3

cyclin D1 (cycD1) [10] = assay: Western blot, 22RV1 cells, cyclin D1; conditions: presence or absence of DHT, 24 h
Protocol: as §1, §2

androgen receptor (AR) = assay: PSA-luciferase reporter assay, DHT induced, 22RV1 cells; conditions: equivalent doses, 22RV1 cells in the presence of DHT
Protocol: 22RV1 or LNCaP prostate cancer cells were used in the screening study. 22RV1 or LNCaP cell lines were stably transfected with PSA promoter-PGL4.2 luciferase reporter. DHT (25 nM) was used to stimulate androgen receptor activity for 24 h.
Reporter cells were treated with herbal extracts at 30, 100, 300, and 1000 μg/ml for 24 h in a 37° C.-CO2 incubator. DHT (25 nM) was used to stimulate androgen receptor activity. Dexamethasone (50 nM) was used to stimulate glucocorticoid receptor activity Cells were lysed using luciferase lysis buffer after which luciferase buffer with luciferin was added to generate luminescence. Luminescence was recorded using a luminescence microplate reader.

22Rv1 cells = assay: Cell growth assay, 22Rv1 prostate cancer cells; conditions: Homo sapiens, 22Rv1, 96 h, 4 days, standardized to equivalent concentration of Y1830, read-out: IC50 for the inhibition of growth
Protocol: as §4, §3

| IC50 ([2]; LNCaP-GR w/DEX 50 nM) | IC50 ([2]; LNCaP-GR w/DHT 2 nM) | IC50 ([2]; LNCaP-GR, no DHT/DEX) | AR protein expression (AR [3]) | ERa protein expression (estrogen receptor ERa) | IC50 (PC3 cells; PC3, no DEX) | IC50 (PC3 cells; PC3 w/DEX 50 nM) | IC50 (LNCaP cells; LNCaP w/DHT 2 nM) | IC50 (LNCaP cells; no DHT) | SMILES | GR protein expression (GR [1]) | beta-catenin protein expression (beta-catenin (b-cat) [4]) | cyclin D1 protein expression (cyclin D1 (cycD1) [5]) | ERb protein expression (estrogen receptor ERb) | PR (a and b) protein expression [6] | AR-V protein expression (AR-V (truncated AR)) | beta-catenin protein expression (beta-catenin (b-cat) [7]) | GR protein expression (GR [8]) | AR protein expression (AR [9]) | cyclin D1 protein expression (cyclin D1 (cycD1) [10]) | inhibitory effect on AR mediated transcriptional response (androgen receptor (AR)) | other results |
| --- | --- | --- | --- | --- | --- | --- | --- | --- | --- | --- | --- | --- | --- | --- | --- | --- | --- | --- | --- | --- | --- |
| > 500 µg/mL | > 500 µg/mL | > 500 µg/mL | did not have any impact | did not have any impact | > 500 µg/mL | > 500 µg/mL | > 500 µg/mL | > 500 µg/mL | Cc1c(OC2OC(CO)C(O)C(O)C2OC2OC(C)C(O)C(O)C2O)cc2c(c1O)C(=O)c1ccc(O)cc1C2=O [RG, 1,3,6-Trihydroxy-2-methyl-9,10-anthracenedione 3-O-[α-L-Rhamnopyranosyl-(1→2)-β-D-glucopyranoside]] | did not have any impact | did not have impact | did not have any impact | did not have any impact | did not have any impact | did not have impact | did not have any impact | did not have impact | did not have impact | did not have impact | very weak activity | IC50 (22Rv1 cells; 22Rv1, no DHT/DEX): > 500 µg/mL; IC50 (22Rv1 cells; 22Rv1 w/DEX 50 nM): > 500 µg/mL; IC50 (22Rv1 cells; 22Rv1 w/DHT 25 nM): > 500 µg/mL |
| 60 µg/mL | 40 µg/mL | 220 µg/mL | downregulate | downregulate | 146 µg/mL | 320 µg/mL | 50 µg/mL | > 500 µg/mL | CC(=O)OCC1OC(Oc2cc3c(c(O)c2C)C(=O)c2ccc(O)cc2C3=O)C(OC2OC(C)C(O)C(O)C2O)C(O)C1O [RGA, 1,3,6-Trihydroxy-2-methyl-9,10-anthracenedione 3-O-[α-L-Rhamnopyranosyl-(1→2)-6-O-acetyl-β-D-glucopyranoside]] | did not inhibited | moderate inhibitory effect | strong inhibitory effects | slightly downregulate | downregulate | downregulate | moderate inhibitory effect | but not GR | downregulate | strong inhibitory effect | very similar anti-AR activity as the Y1830 water extract | inhibition of LNCaP-GR cell growth (in words) ([2]; in the presence of either DHT or DEX): effectively inhibited; inhibition of PC3 cell growth (in words) (PC3 cells; with or without DEX): inhibited PC3 cell growth, but less effectively in the presence of DEX; susceptibility of LNCaP cell growth to treatment (in words) (LNCaP cells; in the absence of DHT): not be susceptible; sensitivity of LNCaP cell growth to treatment (in words) (LNCaP cells; in the presence of DHT): more sensitive; IC50 (22Rv1 cells; 22Rv1, no DHT/DEX): 306 µg/mL; IC50 (22Rv1 cells; 22Rv1 w/DEX 50 nM): 220 µg/mL; IC50 (22Rv1 cells; 22Rv1 w/DHT 25 nM): 253 µg/mL |
